The values that follow come from US8076487B2, “Pyridone derivative and herbicide” (Kumiai Chemical Industry Co., Ltd., priority 2006, dated 2011).

What all share (assay type): in vivo
Test [1] has as its system green foxtail (Setaria viridis (L.) P. Beauv.). In words: Test Example 2: herbicidal effect by soil application to upland field. To be noted: soil surface spray, upland field soil, 1,000 g active ingredient per hectare, 21st day after application. The procedure, abridged: (§1)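 After sowing and covering, the soil received an even aqueous spray of wettable powder at a rate of 1,000 g active ingredient/ha (1,000 L/ha). Ratings of herbicidal effect followed a standard scale 21 days post-treatment, with plants held in a greenhouse.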

The test system of test [2] is barnyardgrass (Echinochloa crus-galli (L.) P. Beauv. var. crus-galli). Described as above. To be noted: soil surface spray, upland field soil, 1,000 g active ingredient per hectare, 21st day after application. Summed up: as §1
Test [3] concerns slender amaranth (Amaranthus viridis L.). The description is as above. To be noted: soil surface spray, upland field soil, 1,000 g active ingredient per hectare, 21st day after application. Summed up:
as §1

Test [4] concerns velvetleaf (Abutilon theophrasti medicus). Described as above. To be noted: soil surface spray, upland field soil, 1,000 g active ingredient per hectare, 21st day after application. The procedure, abridged: as §1
Test [5] concerns green foxtail (Setaria viridis (L.) P. Beauv.). The test can be described thus: Test Example 3: herbicidal effect by application to upland field (foliage treatment). To be noted: 14th day after application; for herbicidal effect, Green Foxtail: foliage treatment, 1,000 g active ingredient per 1 hectare, greenhouse; for herbicidal effect (index), Green Foxtail: foliage treatment, plants grown two weeks, 1,000 g active ingredient per hectare. Summed up:
(§2)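 Two weeks after sowing in field soil under greenhouse conditions, seedlings receive a top-down foliar spray of wettable powder diluted in water at an active-ingredient rate of 1,000 g per hectare. Effect is rated against a standard 14 days post-treatment.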

The test system of test [6] is barnyardgrass (Echinochloa crus-galli (L.) P. Beauv. var. crus-galli). The description is as above. As to conditions: 14th day after application; for herbicidal effect, Barnyardgrass: foliage treatment, 1,000 g active ingredient per 1 hectare, greenhouse; for herbicidal effect (index), Barnyardgrass: foliage treatment, plants grown two weeks, 1,000 g active ingredient per hectare. The procedure, abridged:
as §2

Test [7] deals with slender amaranth (Amaranthus viridis L.). Described as above. To be noted: 14th day after application; for herbicidal effect, Slender Amaranth: foliage treatment, 1,000 g active ingredient per 1 hectare, greenhouse; for herbicidal effect (index), Slender Amaranth: foliage treatment, plants grown two weeks, 1,000 g active ingredient per hectare. Summed up: as §2
Test [8] deals with velvetleaf (Abutilon theophrasti medicus). The description is as above. To be noted: 14th day after application; for herbicidal effect, Velvetleaf: foliage treatment, 1,000 g active ingredient per 1 hectare, greenhouse; for herbicidal effect (index), Velvetleaf: foliage treatment, plants grown two weeks, 1,000 g active ingredient per hectare. The procedure, abridged:
as §2

The subject of test [9] is Japanese bulrush (Scirpus juncoides Roxb.). In words: Test Example 1: herbicidal effect by soil application to paddy field. As to conditions: paddy field soil application; active ingredient 1,000 g per 1 hectare; wettable powder added dropwise to water surface the day after sowing; examined on the 21st day after application. Summed up: (§3)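 Under greenhouse conditions, seeds sown on puddled paddy soil in 100 cm2 pots under 3 cm of standing water received the test compound; injury was assessed with a standard scoring scheme three weeks (day 21) after treatment.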

In test [10] the test system is heartshape false pickerelweed (Monochoria vaginalis (Burm.f.) C.Presl). The test is described as above. To be noted: paddy field soil application; active ingredient 1,000 g per 1 hectare; wettable powder added dropwise to water surface the day after sowing; examined on the 21st day after application. Summed up: as §3
Test [11] deals with early watergrass (Echinochloa oryzicola Vasing). The description is as above. As to conditions: paddy field soil application; active ingredient 1,000 g per 1 hectare; wettable powder added dropwise to water surface the day after sowing; examined on the 21st day after application. The procedure, abridged:
as §3

For the molecule `O=C1CCCC(O)=C1C(=O)c1ccc(C(F)(F)F)n(N2CCCC2)c1=O` [I-177], the “herbicidal effect (index), Green Foxtail” value in test [1] is 5 (90% or more of herbicidal effect and crop phytotoxicity). For the same molecule, the “herbicidal effect (index), Barnyardgrass” value in test [2] is 5 (90% or more of herbicidal effect and crop phytotoxicity). Further, the “herbicidal effect (index), Slender Amaranth” value in test [3] was 5 (90% or more of herbicidal effect and crop phytotoxicity). Further, the “herbicidal effect (index), Velvetleaf” value in test [4] was 5 (90% or more of herbicidal effect and crop phytotoxicity). Moreover, the “herbicidal effect, Green Foxtail” value in [5] was 4 (70 to less than 90% of herbicidal effect and crop phytotoxicity). Also, the “herbicidal effect, Barnyardgrass” value in test [6] is 5 (90% or more of herbicidal effect and crop phytotoxicity). For the same molecule, in test [7], the “herbicidal effect, Slender Amaranth” value was 5 (90% or more of herbicidal effect and crop phytotoxicity). In addition, in test [8], the “herbicidal effect, Velvetleaf” value was 5 (90% or more of herbicidal effect and crop phytotoxicity). Moreover, in test [9], the “herbicidal effect, Scirpus juncoides Roxb.” value was 5 (90% or more of herbicidal effect and crop phytotoxicity). Besides, the “herbicidal effect, Monochoria vaginalis (Burm. f.) C. Presl” value (shortened to “herbicidal effect, Monochoria vaginalis”) in test [10] is 5 (90% or more of herbicidal effect and crop phytotoxicity). Moreover, in test [11], the “herbicidal effect, Echinochloa oryzicola Vasing” value is 5 (90% or more of herbicidal effect and crop phytotoxicity).
Regarding `CCCS(=O)(=O)Oc1c(C(=O)c2ccc(C(F)(F)F)n(C3CC3)c2=O)cnn1C` [IV-19], the “herbicidal effect (index), Green Foxtail” value in test [1] is 5 (90% or more of herbicidal effect and crop phytotoxicity). Also, the “herbicidal effect (index), Barnyardgrass” value in [2] is 5 (90% or more of herbicidal effect and crop phytotoxicity). Also, the “herbicidal effect (index), Slender Amaranth” value in test [3] is 5 (90% or more of herbicidal effect and crop phytotoxicity). For the same molecule, the “herbicidal effect (index), Velvetleaf” value in test [4] was 5 (90% or more of herbicidal effect and crop phytotoxicity). Besides, the “herbicidal effect, Green Foxtail” value in test [5] is 5 (90% or more of herbicidal effect and crop phytotoxicity). Besides, the “herbicidal effect, Barnyardgrass” value in [6] is 5 (90% or more of herbicidal effect and crop phytotoxicity). In test [7], the “herbicidal effect, Slender Amaranth” value is 5 (90% or more of herbicidal effect and crop phytotoxicity). Further, in test [8], the “herbicidal effect, Velvetleaf” value was 5 (90% or more of herbicidal effect and crop phytotoxicity). The “herbicidal effect, Scirpus juncoides Roxb.” value in test [9] is 5 (90% or more of herbicidal effect and crop phytotoxicity). Besides, in test [10], the “herbicidal effect, Monochoria vaginalis” value is 5 (90% or more of herbicidal effect and crop phytotoxicity). In addition, the “herbicidal effect, Echinochloa oryzicola Vasing” value in test [11] was 5 (90% or more of herbicidal effect and crop phytotoxicity).
`O=C1CCCC(O)=C1C(=O)c1ccc(C(F)(F)F)n(-c2ccc(OC(F)(F)F)cc2)c1=O` [I-79]: the “herbicidal effect (index), Green Foxtail” value was 5 (90% or more of herbicidal effect and crop phytotoxicity) in test [1]; 5 (90% or more of herbicidal effect and crop phytotoxicity) in test [5]. For the same molecule, the “herbicidal effect (index), Barnyardgrass” value in [2] is 5 (90% or more of herbicidal effect and crop phytotoxicity); in [6], 5 (90% or more of herbicidal effect and crop phytotoxicity). Besides, the “herbicidal effect (index), Slender Amaranth” value in test [3] is 5 (90% or more of herbicidal effect and crop phytotoxicity); in test [7], 5 (90% or more of herbicidal effect and crop phytotoxicity). The “herbicidal effect (index), Velvetleaf” value was 5 (90% or more of herbicidal effect and crop phytotoxicity) in test [4]; 5 (90% or more of herbicidal effect and crop phytotoxicity) in [8]. Moreover, in [9], the “herbicidal effect, Scirpus juncoides Roxb.” value was 5 (90% or more of herbicidal effect and crop phytotoxicity). Further, in [10], the “herbicidal effect, Monochoria vaginalis” value was 5 (90% or more of herbicidal effect and crop phytotoxicity). For the same molecule, in test [11], the “herbicidal effect, Echinochloa oryzicola Vasing” value was 5 (90% or more of herbicidal effect and crop phytotoxicity).
With `N#CCCn1c(C(F)(F)F)ccc(C(=O)C2=C(O)CCCC2=O)c1=O` [I-44], the “herbicidal effect (index), Green Foxtail” value was 5 (90% or more of herbicidal effect and crop phytotoxicity) in [1]; 5 (90% or more of herbicidal effect and crop phytotoxicity) in test [5]. Further, the “herbicidal effect (index), Barnyardgrass” value was 5 (90% or more of herbicidal effect and crop phytotoxicity) in [2]; 5 (90% or more of herbicidal effect and crop phytotoxicity) in test [6]. For the same molecule, the “herbicidal effect (index), Slender Amaranth” value was 5 (90% or more of herbicidal effect and crop phytotoxicity) in test [3]; 5 (90% or more of herbicidal effect and crop phytotoxicity) in [7]. Also, the “herbicidal effect (index), Velvetleaf” value in [4] was 5 (90% or more of herbicidal effect and crop phytotoxicity); in test [8], 5 (90% or more of herbicidal effect and crop phytotoxicity). For the same molecule, the “herbicidal effect, Scirpus juncoides Roxb.” value in [9] was 5 (90% or more of herbicidal effect and crop phytotoxicity). Moreover, the “herbicidal effect, Monochoria vaginalis” value in test [10] was 5 (90% or more of herbicidal effect and crop phytotoxicity). In addition, the “herbicidal effect, Echinochloa oryzicola Vasing” value in test [11] is 5 (90% or more of herbicidal effect and crop phytotoxicity).
In the case of `O=C1CCCC(O)=C1C(=O)c1ccc(C(F)(F)F)n(CS(=O)(=O)C2CCCC2)c1=O` [I-60], the “herbicidal effect (index), Green Foxtail” value is 5 (90% or more of herbicidal effect and crop phytotoxicity) in [1]; 5 (90% or more of herbicidal effect and crop phytotoxicity) in test [5]. Besides, the “herbicidal effect (index), Barnyardgrass” value in test [2] was 5 (90% or more of herbicidal effect and crop phytotoxicity); in [6], 5 (90% or more of herbicidal effect and crop phytotoxicity). Besides, the “herbicidal effect (index), Slender Amaranth” value in test [3] was 5 (90% or more of herbicidal effect and crop phytotoxicity); in test [7], 5 (90% or more of herbicidal effect and crop phytotoxicity). The “herbicidal effect (index), Velvetleaf” value in [4] is 5 (90% or more of herbicidal effect and crop phytotoxicity); in test [8], 5 (90% or more of herbicidal effect and crop phytotoxicity). Further, in test [9], the “herbicidal effect, Scirpus juncoides Roxb.” value is 5 (90% or more of herbicidal effect and crop phytotoxicity). Also, the “herbicidal effect, Monochoria vaginalis” value in test [10] was 5 (90% or more of herbicidal effect and crop phytotoxicity). For the same molecule, the “herbicidal effect, Echinochloa oryzicola Vasing” value in [11] is 5 (90% or more of herbicidal effect and crop phytotoxicity).
In the case of `O=C(C1=C(O)C2CCC(C2)C1=O)c1ccc(C(F)(F)F)n(CC2CCCO2)c1=O` (centres unmarked) [III-38], the “herbicidal effect (index), Green Foxtail” value in test [1] was 3 (50 to less than 70% of herbicidal effect and crop phytotoxicity). For the same molecule, in test [2], the “herbicidal effect (index), Barnyardgrass” value is 5 (90% or more of herbicidal effect and crop phytotoxicity). For the same molecule, in [3], the “herbicidal effect (index), Slender Amaranth” value was 5 (90% or more of herbicidal effect and crop phytotoxicity). Besides, the “herbicidal effect (index), Velvetleaf” value in test [4] was 5 (90% or more of herbicidal effect and crop phytotoxicity). Also, in test [5], the “herbicidal effect, Green Foxtail” value is 4 (70 to less than 90% of herbicidal effect and crop phytotoxicity). Further, in test [6], the “herbicidal effect, Barnyardgrass” value is 5 (90% or more of herbicidal effect and crop phytotoxicity). Also, in test [7], the “herbicidal effect, Slender Amaranth” value was 5 (90% or more of herbicidal effect and crop phytotoxicity). Also, the “herbicidal effect, Velvetleaf” value in [8] was 5 (90% or more of herbicidal effect and crop phytotoxicity). The “herbicidal effect, Scirpus juncoides Roxb.” value in test [9] was 5 (90% or more of herbicidal effect and crop phytotoxicity). For the same molecule, in test [10], the “herbicidal effect, Monochoria vaginalis” value was 5 (90% or more of herbicidal effect and crop phytotoxicity). In addition, the “herbicidal effect, Echinochloa oryzicola Vasing” value in [11] is 5 (90% or more of herbicidal effect and crop phytotoxicity).
On to `COCCn1c(C(F)(F)F)ccc(C(=O)C2=C(O)C3CCC(C3)C2=O)c1=O` (centres unmarked) [III-19], for which the “herbicidal effect (index), Green Foxtail” value in [1] was 5 (90% or more of herbicidal effect and crop phytotoxicity). The “herbicidal effect (index), Barnyardgrass” value in test [2] is 5 (90% or more of herbicidal effect and crop phytotoxicity). In test [3], the “herbicidal effect (index), Slender Amaranth” value was 5 (90% or more of herbicidal effect and crop phytotoxicity). Also, the “herbicidal effect (index), Velvetleaf” value in test [4] was 5 (90% or more of herbicidal effect and crop phytotoxicity). In addition, in test [5], the “herbicidal effect, Green Foxtail” value is 5 (90% or more of herbicidal effect and crop phytotoxicity). In test [6], the “herbicidal effect, Barnyardgrass” value is 5 (90% or more of herbicidal effect and crop phytotoxicity). The “herbicidal effect, Slender Amaranth” value in test [7] was 5 (90% or more of herbicidal effect and crop phytotoxicity). The “herbicidal effect, Velvetleaf” value in test [8] is 5 (90% or more of herbicidal effect and crop phytotoxicity). In addition, the “herbicidal effect, Scirpus juncoides Roxb.” value in [9] was 5 (90% or more of herbicidal effect and crop phytotoxicity). In test [10], the “herbicidal effect, Monochoria vaginalis” value was 5 (90% or more of herbicidal effect and crop phytotoxicity). Also, the “herbicidal effect, Echinochloa oryzicola Vasing” value in test [11] was 5 (90% or more of herbicidal effect and crop phytotoxicity).
